Measured values taken from US10836743B2, “Fluorinated cyclopropylamine compound, preparation method therefor, pharmaceutical composition thereof, and uses thereof” (SHANGHAI INSTITUTE OF MATERIA MEDICA, CHINESE ACADEMY OF …, priority 2016, dated 2020).
Like-named read-outs stand apart in the source and are kept apart here.

System: leukemia cells MV4-11
Test: Inhibitory activity on growth by MTS method
Type: cell-based
Settings: Homo sapiens
Method: 2. Test of Inhibitory Activities of Compound on Growth by MTS Method Experimental Principle:
MTS assay detects the inhibitory effect of the tested compound to the growth of leukemia cells MV (4:11). The principle is that succinate dehydrogenase in mitochondria in living cells can reduce exogenous thiazole blue to insoluble blue crystal Formazan.
• 1. MV4-11 cells in logarithmic growth phase were accurately counted at 16000 cells/mL, and the diluted cell solution was added to 96-well plates at 90 μL per well. • 2. Fresh medium was taken and sequentially added to a 96-well plate with cell fluid at 90 μL per well. • 3. […] 2 μL of the diluted compound was respectively added to a 96-well plate containing 98 μL of blank medium, and for DMSO group, 98 μL of blank medium was added into 2 μL of DMSO, and mixed for further use. • 5. The compound mixed with the medium was separately added to a 96-well plate in which cells were plated, in triplicate, 20 μL per well, and were mixed. The blank group was added with 200 μL of IMDM medium, and the DMSO group was added with 180 μL of the cell-containing medium in DMSO diluted with the medium. • 6. […]

[1] = 72 h, MV4-11, 3 days, read-out: MTS 3 D
[2] = 240 h, MV4-11, 10 days, read-out: MTS 10 D

| SMILES | IC50 [1] | IC50 [2] |
| --- | --- | --- |
| FC1(CN[C@@H]2C[C@H]2c2ccccc2)CCN(Cc2ccccc2)CC1 (relative stereo) [Example A6, N-((1-Benzyl-4-fluoropiperidin-4-yl)methyl)-trans-2-phenylcyclopropylamine] | > 20 µM | 1.02 ± 2.44 µM |
| O=C(CCc1ccccc1)N1CCC(F)(CN[C@@H]2C[C@H]2c2ccccc2)CC1 (relative stereo) [Example A8, 1-(4-fluoro-4-(((trans-2-phenylcyclopropyl)amino)methyl)piperidin-1-yl)-3-phenyl-1-propanone] | > 20 µM | 0.27 ± 0.37 µM |
| O=C(CCC1CCCCC1)N1CCC(F)(CN[C@@H]2C[C@H]2c2ccccc2)CC1 (relative stereo) [Example A10, 3-cyclohexyl-1-(4-fluoro-4-(((trans-2-phenylcyclopropyl)amino)methyl)piperidin-1-yl)-1-propanone] | > 20 µM | 0.6 ± 1.09 µM |
| FC1(CN[C@@H]2C[C@H]2c2ccccc2)CCN(CCCc2ccccc2)CC1 (relative stereo) [Example A12, N-((4-fluoro-1-(3-phenylpropyl)piperidin-4-yl)methyl)-trans-2-phenylcyclopropylamine] | > 20 µM | 0.96 µM |
| FC1(CN[C@@H]2C[C@H]2c2ccccc2)CCN(CCCC2CCCCC2)CC1 (relative stereo) [Example A14, N-((1-(3-Cyclohexylpropyl)-4-fluoropiperidin-4-yl)methyl)-trans-2-phenylcyclopropylamine] | 8.17 ± 0.35 µM | 13 ± 0.42 µM |
| CN1CCC(F)(CN[C@@H]2C[C@H]2c2ccccc2)CC1 (relative stereo) [Example A15, N-((4-Fluoro-1-methylpiperidin-4-yl)methyl)-trans-2-phenylcyclopropylamine] | > 20 µM | 0.33 ± 0.16 µM |
| CS(=O)(=O)c1ccc(CN2CCC(F)(CN[C@@H]3C[C@H]3c3ccccc3)CC2)cc1 (relative stereo) [Example A16, N-((4-Fluoro-1-(4-(methylsulfonyl)benzyl)piperidin-4-yl)methyl)-trans-2-phenylcyclopropylamine] | > 20 µM |  |
| FC1(CN[C@@H]2C[C@H]2c2ccccc2)CCCCC1 (relative stereo) [Example A18, N-((1-Fluorocyclohexyl)methyl)-trans-2-phenylcyclopropylamine] | > 20 µM | 3 ± 5.19 µM |
| CS(=O)(=O)N1CCC(F)(CN[C@@H]2C[C@H]2c2ccccc2)CC1 (relative stereo) [Example A93, N-((4-Fluoro-1-(methylsulfonyl)piperidin-4-yl)methyl)-trans-2-phenylcyclopropylamine] | > 20 µM | 0.239 ± 0.004 µM |
| O=C(OCC1CNC1)N1CCC(F)(CN[C@@H]2C[C@H]2c2ccccc2)CC1 (relative stereo) [Example A94, Azetidin-3-ylmethyl 4-fluoro-4-(((trans-2-phenylcyclopropyl)amino)methyl)piperidine-1-carboxylate] | > 20 µM | 0.039 ± 0.011 µM |
| O=C(OC1CCNCC1)N1CCC(F)(CN[C@@H]2C[C@H]2c2ccccc2)CC1 (relative stereo) [Example A95, Piperidin-4-yl 4-fluoro-4-(((trans-2-phenylcyclopropyl)amino)methyl)piperidine-1-carboxylate] | > 20 µM | 1.24 ± 0.844 µM |
| N#Cc1ccc(CN2CCC(F)(CN[C@@H]3C[C@H]3c3ccccc3)CC2)cc1 (relative stereo) [Example A96, 4-((4-Fluoro-4-(((trans-2-phenylcyclopropyl)amino)methyl)piperidin-1-yl)methyl)benzonitrile] | > 20 µM | 0.159 ± 0.074 µM |
| FC1(CN[C@@H]2C[C@H]2c2ccccc2)CCN(Cc2ccsc2)CC1 (relative stereo) [Example A98, N-((4-Fluoro-1-(thiophen-3-ylmethyl)piperidin-4-yl)methyl)-trans-2-phenylcyclopropylamine] | > 20 µM | 0.064 ± 0.026 µM |
| O=C(O)c1ccc(CN2CCC(F)(CN[C@@H]3C[C@H]3c3ccccc3)CC2)cc1 [(1R,2S)-A5, 4-((4-Fluoro-4-((((1R,2S)-2-phenylcyclopropyl)amino)methyl)piperidin-1-yl)methyl)benzoate] | > 20 µM | 0.29 ± 0.19 µM |
| O=C(O)c1ccc(CN2CCC(F)(CN[C@H]3C[C@@H]3c3ccccc3)CC2)cc1 [(1S,2R)-A5, 4-((4-Fluoro-4-((((1S,2R)-2-phenylcyclopropyl)amino)methyl)piperidin-1-yl)methyl)benzoate] | > 20 µM | 3.77 ± 1.19 µM |
| O=C(OCC1CCNCC1)N1CCC(F)(CN[C@H]2C[C@@H]2c2ccccc2)CC1 [(1S,2R)-A43] | > 20 µM | 0.96 ± 0.444 µM |

| SMILES | IC50 [1] | IC50 [2] |
| --- | --- | --- |
| O=C(Oc1ccccc1)N1CCC(F)(CNC2CC2c2ccccc2)CC1 (stereo not drawn) [Example A9, Phenyl 4-Fluoro-4-((trans-2-phenylcyclopropyl)amino)methyl)piperidine-1-carboxylate] | > 20 µM | 1.16 ± 0.15 µM |
| CNC1CCC(F)(CNC2CC2c2ccccc2)CC1 (stereo not drawn) [Example A11, 4-fluoro-N-methyl-4-(((trans-2-phenylcyclopropyl)amino)methyl)cyclohexane-1-amine] | > 20 µM |  |
| O=C(NC1CCC(F)(CNC2CC2c2ccccc2)CC1)OCc1ccccc1 (stereo not drawn) [Example A19, Benzyl 4-fluoro-4-((trans-2-phenylcyclopropyl)amino)methyl)cyclohexyl)carbamate] | > 20 µM | 2.57 ± 1.66 µM |
| O=C(O)c1ccc(CN2CCC(COC(=O)N3CCC(F)(CNC4CC4c4ccccc4)CC3)CC2)cc1 (centres unmarked) [Example A91] | > 20 µM | 1.7 ± 0.83 µM |
| O=S(=O)(CC1CCNCC1)N1CCC(F)(CNC2CC2c2ccccc2)CC1 (stereo not drawn) [Example A92, N-((4-Fluoro-1-(piperidin-4-ylmethyl)sulfonyl)piperidin-4-yl)methyl)-trans-2-phenylcyclopropylamine] | > 20 µM | 0.132 ± 0.055 µM |
| CC(C)(C)OC(=O)c1ccc(CN2CCC(F)(CNC3CC3c3ccc(Br)s3)CC2)cc1 (centres unmarked) [Example A101, Tert-Butyl 4-((4-(((2-(5-bromothien-2-yl))cyclopropyl)amino)methyl)-4-fluoropiperidin-1-yl)methyl)benz Oate] | 2.21 ± 0.63 µM | > 20 µM |
| O=C(O)c1ccc(CN2CCC(F)(CNC3CC3c3ccc(Br)s3)CC2)cc1 (centres unmarked) [Example A102] | > 20 µM | > 20 µM |
| CC(C)(C)OC(=O)c1ccc(CN2CCC(F)(CNC3CC3c3ccc(-c4ccc(F)cc4)s3)CC2)cc1 (centres unmarked) [Example A105, Tert-butyl 4-((4-fluoro-4-(((2-(5-(4-fluorophenyl)thiophen-2-yl)cyclopropyl)amino)methyl)piperidin-1-yl)methyl)benzoate] | 1.95 ± 0.6 µM | 8.35 ± 0.71 µM |
| CC(C)(C)OC(=O)c1ccc(CN2CCC(F)(CNC3CC3c3ccc(-c4ccc(Cl)cc4)s3)CC2)cc1 (centres unmarked) [Example A106] | 1.71 ± 0.22 µM | 9.99 ± 1.5 µM |
| CC(C)(C)OC(=O)c1ccc(CN2CCC(F)(CNC3CC3c3ccc(-c4ccc(C(F)(F)F)cc4)s3)CC2)cc1 (centres unmarked) [Example A107, Tert-butyl 4-((4-fluoro-4-(((2-(5-(4-(trifluoromethyl)phenyl)thiophen-2-yl)cyclopropyl)amino)methyl)piperidin-1-yl)methyl)benzoate] | 0.75 ± 0.15 µM | 13 ± 1.9 µM |
| CC(C)(C)OC(=O)c1ccc(CN2CCC(F)(CNC3CC3c3ccc(-c4ccccc4)s3)CC2)cc1 (centres unmarked) [Example A108, Tert-butyl 4-((4-fluoro-4-(((2-(5-phenylthiophen-2-yl)cyclopropyl)amino)methyl)piperidin-1-yl)methyl)benzoate] | 2.64 ± 0.97 µM | 11.9 ± 2.04 µM |
| CC(C)(C)OC(=O)c1ccc(CN2CCC(F)(CNC3CC3c3ccc(-c4cccc5ccccc45)s3)CC2)cc1 (centres unmarked) [Example A109, tert-Butyl 4-((4-fluoro-4-(((2-(5-(naphthalen-1-yl)thiophen-2-yl)cyclopropyl)amino)methyl)piperidine-1-yl)methyl)benzoate] | 2.1 ± 0.12 µM | 4.7 ± 1.68 µM |
| O=C(OCC1CCNCC1)N1CCC(F)(CNC2CC2c2ccc(-c3ccc(C(F)(F)F)cc3)s2)CC1 (centres unmarked) [Example A110, Piperidin-4-ylmethyl 4-fluoro-4-(((2-(5-(4-(trifluoromethyl)phenyl)thiophen-2-yl)cyclopropyl)amino)methyl) piperidine-1-carboxylate] | 2.59 ± 0.14 µM | 5.93 ± 0.35 µM |
| O=C(OCC1CCNCC1)N1CCC(F)(CNC2CC2c2ccc(Br)s2)CC1 (centres unmarked) [Example A111, Piperidin-4-ylmethyl 4-(((2-(5-bromothien-2-yl)cyclopropyl)amino)methyl)-4-fluoropiperidine-1-carboxylate] | > 20 µM | 19.9 ± 0.86 µM |
| COc1ccc(-c2ccc(C3CC3NCC3(F)CCN(C(=O)OCC4CCNCC4)CC3)cn2)cc1 (centres unmarked) [Example A112, Piperidin-4-ylmethyl 4-fluoro-4-(((2-(6-(4-methoxyphenyl)pyridin-3-yl)cyclopropyl)amino)methyl)piperidine-1-carboxylate] | > 20 µM | > 20 µM |
| O=C(OCC1CCNCC1)N1CCC(F)(CNC2CC2c2ccc(C3CC3)s2)CC1 (centres unmarked) [Example A113, Piperidin-4-ylmethyl 4-(((2-(5-cyclopropylthien-2-yl)cyclopropyl)amino)methyl)-4-fluoropiperidine-1-carboxylate] | > 20 µM | > 20 µM |
